From EP1505089B1, “Cationic (alkyl)acrylamide derivative, polymer based on these derivates, and transfection system comprising said polymer” (OctoPlus Technologies B.V., priority 2003, dated 2005)

Test: Degradation of the monomer followed with RP-HPLC
Format: physicochemical
Conditions: 37 °C
Protocol: Degradation of the monomer was followed with RP-HPLC at 37 °C. The relative peak areas of the monomer and its degradation product HPMA as a function of time are depicted in figure 1(A) for pH 10, 1(B) for pH 7.4 and 1(C) for pH 5.0.

half-life of the monomer (pH 5.0, RP-HPLC): 380 h
half-life of the monomer (pH 7.4, RP-HPLC): 9.6 h
half-life of the monomer (pH 10, RP-HPLC): 1.1 h
Compound: C=C(C)C(=O)NCC(C)OC(=O)OCCN(C)C (stereo not drawn) [HPMA-DMAE]
